From publication PMC6320925, “Synthesis, In Vitro Biological Evaluation, and Oxidative Transformation of New Flavonol Derivatives: The Possible Role of the Phenyl-N,N-Dimethylamino Group” (Molecules, 2018)

Assays:
[1] = design: method as in ref 20 (Culhaoglu et al.); conditions: ref 20 (Culhaoglu et al.); cited from earlier work
[2] = design: method as in ref 20 (Culhaoglu et al.); conditions: ref 20 (Culhaoglu et al.); cited from earlier work; remark: listed apart in the source
H9c2 cells = experiment: MTT cell viability assay; assay type: cell-based; conditions: 20 µM, 12 h
Method: (§1) The MTT assay was used to determine the effect of the investigated compounds on the cell viability. H9c2 cells (ATCC, CRL-1446, LGC Standards GmbH, Wesel, Germany) were seeded into 96-well plates at a density of 6000 cells/well in 200 µL media (DMEM, high glucose, pyruvate from Thermo Fischer Scientific with 10% FBS and supplemented with penicillin and streptomycin) and cultured overnight. The flavonols were added to the cells in 20 µM concentration. After 12 h, 20 μL of MTT solution ([…] in PBS) was added to each well, and the plates were incubated for 4 h. Afterwards, the media was carefully removed and 100 μL DMSO was added to each well to dissolve the formazan crystals. Absorbance was measured at 540 and 630 nm using a Synergy HT plate reader (BioTek, Winooski, VT, USA). The tests were carried out in triplicate and repeated two times.

[3] = Chemical Fenton reaction (biomimetic model of phase I biotransformation); assay type: in vitro ADME; conditions: ESI-MS and LC-MS detection
Method: The Fenton reaction of the compounds was carried out based on a method reported previously by Csepanyi et al.. The reaction mixture consisted of 400 μL 2.5 mM of the investigated compound in ACN, 50 μL 20 mM FeCl3, 50 μL 20 mM EDTA-Na2, and 500 μL 10 mM ascorbic acid in ACN/H2O (50:50) and 2 μL 30% hydrogen peroxide. The reaction mixture was stirred at room temperature at 700 rpm. Samples were drawn at 2, 24, 72, and 144 h and were diluted with ACN/H2O (50:50) and analyzed immediately by an API 2000 Triple Quadrupole mass spectrometer (Applied Biosystems, Waltham, MA, USA) equipped with a syringe pump with the following parameters: 20 μL/min flow rate, 10 PSI curtain gas, 20 V declustering potential, 4000 V ion spray voltage, 400 V focusing potential, and 200 °C ion source temperature. The positive ion electrospray mass spectra were recorded in the range of m/z 100–500 using Analyst 1.5.1. Software (AB SCIEX, Concord, ON, Canada). In additional experiments, the reaction mixture was separated and analyzed with an LTQ XL linear ion trap mass spectrometer coupled with the Accela LC system (Thermo Fisher Scientific, Waltham, MA, USA). The HPLC separation was performed using a Kinetex XB-C18 2.6 μm column, 0.1% formic acid in water, and ACN with 0.1% formic acid with gradient elution, and the flow rate was set to 300 μL/min. […]

[4] = FRAP assay (ferric reducing antioxidant power); conditions: all tested concentrations (10–200 µM), 30 min incubation
Method: The ferric reducing antioxidant power of the compounds was tested with a modified method of Benzie and Strain [37]. The FRAP reagent consisted of 10 mL acetate buffer (300 mM, pH 3.6), 1 mL TPTZ solution (10 mM) in 40 mM HCl, and 1 mL FeCl3 (10 mM). The mixture was incubated at 37 °C for 15 min and used on the same day. The reaction mixture was prepared by 20 µL of the investigated compound (10, 20, 50, 100, and 200 µM) and 180 µL activated FRAP reagent in a 96-well plate. Following a 30 min incubation period, the absorbance was measured at 593 nm by a Multiskan GO microplate spectrophotometer (Thermo Fisher Scientific, Waltham, MA, USA). Iron (II) sulfate heptahydrate was used as the standard in different concentrations (0.5, 1, 5, 10, 50, 100, and 500 µM). The FRAP values are expressed as µM ferrous equivalents. The experiments were run in duplicate and repeated three times.

[5] = ORAC assay (oxygen radical absorbance capacity); conditions: for ORAC value (AUCnet): 2 and 10 µM; for ORAC value compared to quercetin: 10 µM
Method: The oxygen radical absorbance capacity was evaluated using the ORAC assay. The test was carried out in a black 96-well plate with a black bottom. The stock solutions of 50 nM fluorescein and 180 mM AAPH in phosphate buffer (75 mM, pH 7.00) were prepared freshly and used on the same day. To each well, 20 µL of compound in ACN (2 and 10 µM) was added to 160 µL fluorescein. In the case of blank samples, 20 µL of ACN was added. The plate was incubated for 15 min at 37 °C, and then the 20 µL AAPH solution was rapidly added to each well to initiate the reaction. The fluorescence was monitored at 485 nm excitation and 520 nm emission wavelength for 2 h every 2 min by the FLUOstar OPTIMA (BMG Labtech, Ortenberg, Germany) plate reader. The assay was performed in duplicate and repeated three times. The area under the curve (AUC) was calculated as follows:AUC = 0.5 + (A1/A0) + (A2/A0) + (A3/A0) + ⋯ + (An/A0),(1) where A0 is the fluorescence reading at 0 min and An is the fluorescence reading at n min. The reported ORAC values were calculated by subtracting the blank AUC from the sample AUC and expressed as AUCnet. AUCnet = AUCsample − AUCblank(2)

[6] = ABTS radical scavenging assay; conditions: from inhibition percentage at 120 min, concentration range 10–200 µM
Method: To measure the ABTS radical scavenging activity, the work of Sugahara et al. and Re et al. was followed closely, applying few alterations. A mixture containing 7 mM ABTS and 2.45 mM K2S2O8 in water was kept in the dark for 16 h to form ABTS^•+. The working solution was prepared by adding 150 µL of ABTS^•+ solution to 2.9 mL MeOH. Aliquots of 180 µL of this working solution were pipetted into wells containing 20 µL of test samples in DMSO with different concentrations (10, 20, 50, 100, and 200 µM). Absorbance was measured at 737 nm after 10 s mixing using a Multiskan GO microplate spectrophotometer (Thermo Fisher Scientific, Waltham, MA, USA) at 0, 1, 2, 3, 4, 5, 10, 15, 30, 45, 60, 75, 90, 105, and 120 min. Quercetin was used as the standard. The IC50 values were calculated based on the inhibition percentage measured at 120 min. The experiments were carried out in duplicate and repeated three times.

[7] = DPPH radical scavenging assay; conditions: from inhibition percentage at 90 min, concentration range 10–200 µM
Method: The method used for the DPPH radical scavenging assay was adopted from Clarke et al., with modifications. A total of 180 µL freshly made 0.2 mM DPPH solution in methanol was added to 20 µL of the investigated compounds in various concentrations (10, 20, 50, 100, and 200 µM) in DMSO. After a gentle, 10-s mixing period, the plate was kept in the dark for 90 min. and the absorbance was read at 515 nm using a Multiskan GO microplate spectrophotometer (Thermo Fisher Scientific, Waltham, MA, USA) at 0, 1, 2, 3, 4, 5, 10, 15, 30, 45, 60, 75, and 90 min. Blanks (20 µL DMSO with 180 µL MeOH) and quercetin standards in the same concentration as the tested compounds were measured simultaneously. The IC50 values were calculated based on the inhibition percentage measured at 90 min. The measurements were performed in duplicate and repeated three times.

[8] = design: method as in PMID 28383511; conditions: cited from earlier work
[9] = design: method as in ref 29 (Deng et al.); conditions: ref 29 (Deng et al.); cited from earlier work
MTT cell viability assay = assay type: cell-based; conditions: rat, H9c2 cells, read-out: cell viability compared to the control
Method: as §1

IC50 DPPH scavenging [7]	melting point	Structure (SMILES)	cytotoxic activity (cell viability) (H9c2 cells)	FRAP value [4]	ORAC value (AUCnet) [5]	other results
		CN(C)c1ccc(-c2oc3ccccc3c(=O)c2O)cc1 [4′-N,N-dimethylamino-3-OH-flavon]				scavenging of ABTS radicals [1]: significant scavenging; scavenging of DPPH radicals [2]: significant scavenging
lowest IC50 value		COc1ccc(-c2oc3cc(-c4cccc(N(C)C)c4)ccc3c(=O)c2O)cc1OC [6c, 2-(3,4-Dimethoxyphenyl)-7-[3-(dimethylamino)phenyl]-3-hydroxy-4H-chromen-4-one]	did not exhibit cytotoxic activity	highest FRAP values	fourth highest capacity	oxidative transformation products (potential metabolites) [3]: two potential metabolites were detected; IC50 ABTS radical cation scavenging [6]: lowest IC50 value
lower antioxidant potency	179.5 to 181.8 °C	COc1cc(-c2oc3cc(-c4cccc(N(C)C)c4)ccc3c(=O)c2O)cc(OC)c1OC [6e, 7-[3-(Dimethylamino)phenyl]-3-hydroxy-2-(3,4,5-trimethoxyphenyl)-4H-chromen-4-one]	did not exhibit cytotoxic activity	highest FRAP values	highest ORAC value	ORAC value compared to quercetin [5]: comparable to quercetin
		CN(C)c1ccc(-c2cc(=O)c3ccccc3o2)cc1 [4′-N,N-dimethylamino-flavon]				radical scavenger activity [8]: good radical scavenger
		O=c1c(O)c(-c2ccc(O)c(O)c2)oc2cc(O)cc(O)c12 [quercetin]				FRAP value relative to the methylated form [9]: 650 times
	192.8 to 194.3 °C	COCc1ccc(-c2ccc3oc(-c4ccc(OC)c(OC)c4)c(O)c(=O)c3c2)cc1 [6b, 2-(3,4-Dimethoxyphenyl)-3-hydroxy-6-[4-(methoxymethyl)phenyl]-4H-chromen-4-one]	significantly decreased the viability of cells	significantly lower ferrous equivalents	highest ORAC value	
	212.1 to 214.2 °C	COCc1ccc(-c2ccc3c(=O)c(O)c(-c4ccc(OC)c(OC)c4)oc3c2)cc1 [6d, 2-(3,4-Dimethoxyphenyl)-3-hydroxy-7-[4-(methoxymethyl)phenyl]-4H-chromen-4-one]	significantly decreased the viability of cells	significantly lower ferrous equivalents		viability at 12 h, 20 µM (MTT cell viability assay): 46%
	187.7 to 188.8 °C	COc1ccc(-c2oc3ccc(-c4cccc(N(C)C)c4)cc3c(=O)c2O)cc1OC [6a, 2-(3,4-Dimethoxyphenyl)-6-[3-(dimethylamino)phenyl]-3-hydroxy-4H-chromen-4-one]	did not exhibit cytotoxic activity	highest FRAP values	highest ORAC value	ORAC value compared to quercetin [5]: comparable to quercetin
lower antioxidant potency	208.1 to 209.2 °C	COCc1ccc(-c2ccc3c(=O)c(O)c(-c4cc(OC)c(OC)c(OC)c4)oc3c2)cc1 [6f, 3-Hydroxy-7-[4-(methoxymethyl)phenyl]-2-(3,4,5-trimethoxyphenyl)-4H-chromen-4-one]	significantly decreased the viability of cells	significantly lower ferrous equivalents		
